Laboratory results reported in ChEMBL document CHEMBL4346671, “Synthesis and bioevaluation of diarylpyrazoles as antiproliferative agents” (Eur J Med Chem, 2019).
pIC50: −log10 of the molar value. Calls of active or inactive are those of the source. No cut-off for these calls is given here.

Assays:
SGC-7901 [1] = test: Antiproliferative activity against human SGC7901 cells measured after 72 hrs by MTT assay; format: functional, cell-based; conditions: SGC-7901, 72 h
KB = test: Antiproliferative activity against human KB cells measured after 72 hrs by MTT assay; format: functional, cell-based
HT-1080 = test: Antiproliferative activity against human HT1080 cells measured after 72 hrs by MTT assay; format: functional, cell-based; conditions: HT-1080, 72 h
Tubulin (Homo sapiens) [2] = target: T1, Tubulin (Homo sapiens) (UniProt P68371+Q9H4B7+P0DPH7+P68366+Q13509+Q71U36+P04350+Q3ZCM7+P07437+P68363+Q9BQE3+Q6PEY2+Q13885+Q9BVA1+Q9BUF5); test: Induction of microtubule depolymerization in human SGC7901 cells assessed as change in microtubule morphology at 2 fold antiproliferative IC50 measured after 24 hrs by DAPI staining based fluorescence microscopy; format: cell-based
SGC-7901 [3] = test: Cell cycle arrest in human SGC7901 cells assessed as increase in cell population at G2/M phase at 2 fold IC50 concentration measured after 12 hrs by propidium iodide staining based FACScan flow cytometry; format: functional
SGC-7901 [4] = test: Cell cycle arrest in human SGC7901 cells assessed as increase in cell population at G2/M phase at 2 fold IC50 concentration measured after 24 hrs by propidium iodide staining based FACScan flow cytometry; format: functional
Tubulin (Sus scrofa) [5] = target: T2, Tubulin (Sus scrofa) (UniProt P02554+P02550); conditions: 4 uM
Description: Inhibition of porcine brain tubulin polymerization at 4 uM preincubated before GTP addition and measured at 1 min intervals for 90 mins by fluorescence based assay

Tubulin (Sus scrofa) [6] = target: T2, Tubulin (Sus scrofa); test: Inhibition of porcine brain tubulin polymerization at 3 to 20 uM preincubated before GTP addition and measured at 1 min intervals for 90 mins by fluorescence based assay
Tubulin = Tubulin (Sus scrofa, UniProt P02554+P02550); test: Inhibition of porcine brain tubulin polymerization preincubated before GTP addition and measured at 1 min intervals for 90 mins by fluorescence based assay
SGC-7901 [7] = test: Induction of polyploidy in human SGC7901 cells at 2 fold IC50 concentration measured after 72 hrs by propidium iodide staining based FACScan flow cytometry; format: functional, cell-based
SGC-7901 [8] = test: Cell cycle arrest in human SGC7901 cells assessed as accumulation of cell population in G2/M phase at 2 fold IC50 concentration for 12 to 72 hrs by propidium iodide staining based FACScan flow cytometry; format: functional; conditions: TDE = time-dependent effect
SGC-7901 [9] = test: Cell cycle arrest in human SGC7901 cells assessed as increase in cell population at sub-G1 phase at 2 fold IC50 concentration measured after 36 hrs by propidium iodide staining based FACScan flow cytometry; format: functional
Tubulin (Homo sapiens) [10] = target: T1, Tubulin (Homo sapiens); test: Inhibition of microtubule formation in human SGC7901 cells assessed as mitotic catastrophe at 2 fold IC50 concentration measured after 24 hrs by DAPI staining based fluorescence microscopy; format: cell-based
Tubulin (Homo sapiens) [11] = target: T1, Tubulin (Homo sapiens); test: Inhibition of microtubule formation in human SGC7901 cells at 2 fold IC50 concentration measured after 24 hrs by DAPI staining based fluorescence microscopy; format: cell-based
SGC-7901 [12] = test: Cell cycle arrest in human SGC7901 cells assessed as decrease in cell population at G2/M phase at 2 fold IC50 concentration measured after 36 hrs by propidium iodide staining based FACScan flow cytometry; format: functional
SGC-7901 [13] = test: Cell cycle arrest in human SGC7901 cells assessed as decrease in cell population at G2/M phase at 2 fold IC50 concentration measured after 48 hrs by propidium iodide staining based FACScan flow cytometry; format: functional
SGC-7901 [14] = test: Cell cycle arrest in human SGC7901 cells assessed as decrease in cell population at G2/M phase at 2 fold IC50 concentration measured after 72 hrs by propidium iodide staining based FACScan flow cytometry; format: functional
SGC-7901 [15] = test: Cell cycle arrest in human SGC7901 cells assessed as increase in cell population at sub-G1 phase at 2 fold IC50 concentration measured after 48 hrs by propidium iodide staining based FACScan flow cytometry; format: functional
SGC-7901 [16] = test: Cell cycle arrest in human SGC7901 cells assessed as increase in cell population at sub-G1 phase at 2 fold IC50 concentration measured after 72 hrs by propidium iodide staining based FACScan flow cytometry; format: functional

T2 sequence (P02550 whole entry, looked up): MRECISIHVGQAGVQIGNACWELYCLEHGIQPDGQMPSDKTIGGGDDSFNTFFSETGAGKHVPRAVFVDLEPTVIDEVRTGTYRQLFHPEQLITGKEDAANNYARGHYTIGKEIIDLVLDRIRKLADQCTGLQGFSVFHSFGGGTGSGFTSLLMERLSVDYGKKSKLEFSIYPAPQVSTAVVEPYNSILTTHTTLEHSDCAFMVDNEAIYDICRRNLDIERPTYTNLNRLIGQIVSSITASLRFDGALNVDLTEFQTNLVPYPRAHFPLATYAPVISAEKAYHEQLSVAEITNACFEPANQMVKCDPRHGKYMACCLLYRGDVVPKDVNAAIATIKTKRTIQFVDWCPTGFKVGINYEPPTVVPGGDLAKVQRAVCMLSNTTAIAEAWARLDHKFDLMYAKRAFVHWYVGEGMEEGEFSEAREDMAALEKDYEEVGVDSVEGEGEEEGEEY
T2 sequence (P02554 whole entry, looked up): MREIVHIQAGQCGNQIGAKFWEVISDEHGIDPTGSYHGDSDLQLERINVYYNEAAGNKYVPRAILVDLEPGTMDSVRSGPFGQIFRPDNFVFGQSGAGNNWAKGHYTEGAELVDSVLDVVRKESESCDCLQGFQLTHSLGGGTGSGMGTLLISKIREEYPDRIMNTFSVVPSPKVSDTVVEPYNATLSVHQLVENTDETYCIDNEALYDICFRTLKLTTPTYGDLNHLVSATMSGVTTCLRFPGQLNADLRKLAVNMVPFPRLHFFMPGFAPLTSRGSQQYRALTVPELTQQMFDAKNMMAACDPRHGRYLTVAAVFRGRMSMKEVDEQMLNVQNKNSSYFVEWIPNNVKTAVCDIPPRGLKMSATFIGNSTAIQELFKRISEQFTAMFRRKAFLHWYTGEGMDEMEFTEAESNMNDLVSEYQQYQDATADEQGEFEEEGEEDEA

| pIC50 (SGC-7901 [1]) | pIC50 (KB) | pIC50 (HT-1080) | Structure (SMILES) | also measured |
| --- | --- | --- | --- | --- |
| 7.82 | 7.44 | 7.72 | CCOc1ccc(-c2cnn(C(C)=O)c2-c2cc(OC)c(OC)c(OC)c2)cc1 |  |
| 5.32 | 5.34 | 5.88 | COc1ccc(-c2cnn(C(C)=O)c2-c2cc(OC)c(OC)c(OC)c2)cc1OC |  |
| 7.36 | 7.60 | 7.59 | COc1ccc(-c2n[nH]cc2-c2cc(OC)c(OC)c(OC)c2)cc1 |  |
| 4.98 | 5.17 | 4.91 | COc1ccc(-c2cnn(C(C)=O)c2-c2cc(OC)c(OC)c(OC)c2)cc1OCc1ccccc1 |  |
| 5.42 | 6.21 | 5.72 | COc1ccc(-c2n[nH]cc2-c2cc(OC)c(OC)c(OC)c2)cc1OC |  |
| 7.89 | 7.55 | 7.02 | COc1ccc(-c2cnn(C(C)=O)c2-c2cc(OC)c(OC)c(OC)c2)cc1 |  |
| 4.89 | 5.17 | 5.09 | COc1cc(-c2n[nH]cc2-c2ccc(OCc3ccccc3)cc2)cc(OC)c1OC |  |
| 8.03 | 7.66 | 7.92 | COc1ccc(-c2c(-c3cc(OC)c(OC)c(OC)c3)cnn2C(C)=O)cc1O | inhibition (Tubulin (Sus scrofa) [6]): Dose-dependent effect; IC50 (Tubulin): 7730 nM; Activity (SGC-7901 [7]): Active; Activity (SGC-7901 [8]): Tde; Activity (SGC-7901 [9]): Active; Activity (Tubulin (Homo sapiens) [2]): Active; inhibition (Tubulin (Homo sapiens) [10]): Active; inhibition (Tubulin (Homo sapiens) [11]): Active; Activity (SGC-7901 [3]): Active; Activity (SGC-7901 [4]): Active; Activity (SGC-7901 [12]): Active; Activity (SGC-7901 [13]): Active; Activity (SGC-7901 [14]): Active; Activity (SGC-7901 [15]): Active; Activity (SGC-7901 [16]): Active |
| 4.86 | 4.97 | 4.71 | COc1cc(-c2c(-c3ccc(OC(F)(F)F)cc3)cnn2C(C)=O)cc(OC)c1OC |  |
| 4.52 | 4.07 | 4.74 | COc1ccc(-c2c(-c3cc(OC)c(OC)c(OC)c3)cnn2C(C)=O)cc1OCc1ccccc1 |  |
| 4.84 | 3.89 | 4.35 | COc1cc(-c2c(-c3ccc(OCc4ccccc4)cc3)cnn2C(C)=O)cc(OC)c1OC |  |
| 7.82 | 7.19 | 7.68 | CCOc1ccc(-c2n[nH]cc2-c2cc(OC)c(OC)c(OC)c2)cc1 |  |
| 7.51 | 7.64 | 7.52 | COc1ccc(-c2cn[nH]c2-c2cc(OC)c(OC)c(OC)c2)cc1O |  |
| 7.51 | 7.64 | 7.85 | COc1ccc(-c2c(-c3cc(OC)c(OC)c(OC)c3)cnn2C(C)=O)cc1 |  |
| 7.82 | 7.48 | 7.77 | COc1ccc(-c2cnn(C(C)=O)c2-c2cc(OC)c(OC)c(OC)c2)cc1O |  |
| 4.44 | 5.26 | 5.32 | COc1ccc(-c2c[nH]nc2-c2cc(OC)c(OC)c(OC)c2)cc1OC |  |
| 5.66 | 5.82 | 5.39 | COc1cccc(-c2c[nH]nc2-c2cc(OC)c(OC)c(OC)c2)c1 |  |
| 6.74 | 7.14 | 7.10 | COc1ccc(-c2c[nH]nc2-c2cc(OC)c(OC)c(OC)c2)cc1 |  |
| 4.55 | 4.06 | 4.68 | COc1ccc(-c2n[nH]cc2-c2cc(OC)c(OC)c(OC)c2)cc1OCc1ccccc1 |  |
| 4.81 | 5.07 | 5.00 | COc1cc(-c2n[nH]cc2-c2ccc(O)cc2)cc(OC)c1OC |  |
| 5.31 | 5.29 | 5.60 | COc1cc(-c2c(-c3ccc(O)cc3)cnn2C(C)=O)cc(OC)c1OC |  |
| 7.49 | 7.22 | 7.64 | COc1ccc(-c2[nH]ncc2-c2cc(OC)c(OC)c(OC)c2)cc1O |  |
| 4.86 | 4.48 | 4.71 | COc1cc(-c2n[nH]cc2-c2ccc(F)c(F)c2)cc(OC)c1OC |  |
| 5.87 | 5.54 | 5.87 | COc1cc(-c2n[nH]cc2-c2ccc(OC(F)(F)F)cc2)cc(OC)c1OC |  |
| 5.69 | 6.15 | 5.92 | COc1ccc(-c2c(-c3cc(OC)c(OC)c(OC)c3)cnn2C(C)=O)cc1OC |  |
| 7.52 | 7.46 | 7.77 | CCOc1ccc(-c2c[nH]nc2-c2cc(OC)c(OC)c(OC)c2)cc1 |  |
| 5.03 | 5.15 | 5.00 | COc1ccc(-c2c[nH]nc2-c2cc(OC)c(OC)c(OC)c2)cc1OCc1ccccc1 |  |
| 6.70 | 6.96 | 7.68 | CCOc1ccc(-c2c(-c3cc(OC)c(OC)c(OC)c3)cnn2C(C)=O)cc1 |  |

| Structure (SMILES) | pIC50 (SGC-7901 [1]) | pIC50 (KB) | pIC50 (HT-1080) | also measured |
| --- | --- | --- | --- | --- |
| COc1ccc(/C=C\c2cc(OC)c(OC)c(OC)c2)cc1O [COMBRETASTATIN A4] | 6.89 | 6.60 | 7.29 | Activity (Tubulin (Homo sapiens) [2]): Active; Activity (SGC-7901 [3]): Active; Activity (SGC-7901 [4]): Active; inhibition (Tubulin (Sus scrofa) [5]): Active |
